According to US20240226107A1, “UBIQUITIN-SPECIFIC PROTEASE 1 (USP1) INHIBITOR” (SIMCERE ZAIMING PHARMACEUTICAL CO., LTD., priority 2021, published 2024):

Experiments:
[1] = biological target: USP1 (Recombinant Human His6-USP1/His6-UAF1 Complex Protein) (Homo sapiens (Human), UniProt O94782); assay: In vitro activity assay for USP1 (Ub-CHOP2-Reporter deubiquitination assay); format: biochemical; conditions: 0.5 h incubation at room temperature, read-out: In vitro inhibitory activity of USP1 IC50
Chain of USP1 (Recombinant Human His6-USP1/His6-UAF1 Complex Protein) (O94782 whole entry): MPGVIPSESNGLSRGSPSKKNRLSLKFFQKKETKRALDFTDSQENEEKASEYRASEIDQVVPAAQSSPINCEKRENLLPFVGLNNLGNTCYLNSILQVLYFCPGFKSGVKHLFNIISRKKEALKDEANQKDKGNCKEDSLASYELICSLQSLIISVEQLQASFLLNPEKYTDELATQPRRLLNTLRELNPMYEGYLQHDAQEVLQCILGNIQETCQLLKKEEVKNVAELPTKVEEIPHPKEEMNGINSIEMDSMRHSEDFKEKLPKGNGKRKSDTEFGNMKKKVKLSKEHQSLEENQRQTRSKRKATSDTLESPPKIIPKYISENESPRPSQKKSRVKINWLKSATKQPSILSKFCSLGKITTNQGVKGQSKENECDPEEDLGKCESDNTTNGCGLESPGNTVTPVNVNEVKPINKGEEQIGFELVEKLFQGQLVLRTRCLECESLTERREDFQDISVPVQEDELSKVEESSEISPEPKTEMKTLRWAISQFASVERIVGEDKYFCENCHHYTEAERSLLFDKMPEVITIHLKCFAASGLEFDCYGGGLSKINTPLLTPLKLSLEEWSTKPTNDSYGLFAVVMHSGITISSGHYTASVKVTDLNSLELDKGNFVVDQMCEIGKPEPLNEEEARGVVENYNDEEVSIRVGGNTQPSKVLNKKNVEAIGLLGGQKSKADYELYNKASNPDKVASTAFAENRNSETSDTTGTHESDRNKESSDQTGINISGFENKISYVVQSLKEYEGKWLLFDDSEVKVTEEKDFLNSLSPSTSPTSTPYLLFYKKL
Chain of USP1 (Recombinant Human His6-USP1/His6-UAF1 Complex Protein) (Q8TAF3 whole entry partner): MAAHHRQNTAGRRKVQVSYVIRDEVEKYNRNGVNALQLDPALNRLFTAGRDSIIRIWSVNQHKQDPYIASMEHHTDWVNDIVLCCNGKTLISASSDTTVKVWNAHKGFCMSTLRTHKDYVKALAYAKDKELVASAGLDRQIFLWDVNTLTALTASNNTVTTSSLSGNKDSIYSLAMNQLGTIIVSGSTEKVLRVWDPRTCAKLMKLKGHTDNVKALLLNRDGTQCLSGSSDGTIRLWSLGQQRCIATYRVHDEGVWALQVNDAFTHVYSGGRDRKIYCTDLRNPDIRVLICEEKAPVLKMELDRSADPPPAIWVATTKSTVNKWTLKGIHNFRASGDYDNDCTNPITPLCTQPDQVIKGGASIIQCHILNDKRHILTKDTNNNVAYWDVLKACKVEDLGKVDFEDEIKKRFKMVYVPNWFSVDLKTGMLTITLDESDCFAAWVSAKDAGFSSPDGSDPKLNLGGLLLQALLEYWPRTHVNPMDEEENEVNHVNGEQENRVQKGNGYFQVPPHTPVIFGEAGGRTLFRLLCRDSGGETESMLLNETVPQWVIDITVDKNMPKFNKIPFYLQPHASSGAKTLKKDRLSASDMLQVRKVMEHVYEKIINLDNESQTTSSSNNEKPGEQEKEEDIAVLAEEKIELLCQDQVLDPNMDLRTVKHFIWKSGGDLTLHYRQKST
Protocol: The assay kit (Ub-CHOP2-Reporter Deubiquitination Assay Kit) was purchased from Lifesensors, with Cat. No. of PR1101. The assay kit was subpackaged and stored at −80° C.
Each compound to be tested was dissolved with DMSO to 10 mM. The compound and pure DMSO (with a total volume of 50 nL) were loaded to each well of the 384-well plate by using an ECHO instrument to obtain gradient-diluted sample concentrations at different ratios. The enzyme was diluted with a freshly prepared reaction solution (20 mM Tris-HCl (pH 8.0), 2 mM CaCl2, 2 mM β-mercaptoethanol, 0.05% CHAPS, and ddH2O). To each well, 5 μL of diluted enzyme reaction solution was added, then the plate was centrifuged and oscillated to mix the enzyme and the compound, and the mixture was centrifuged again and placed on ice. The kit reporter system and the substrate were diluted with the reaction solution, then 5 μL of diluted liquid was added to each well, and mixed by centrifugation. The mixture was incubated at room temperature for 0.5 h. […] The inhibitory activity (IC50 values) of the compound on enzyme activity was calculated by using a four-parameter Logistic Model. […] A, B, C, and D are four parameters.

[2] = system: MDA-MB-436 cells;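 note: MDA-MB-436 proliferation over 7 days with compound, viability read as ATP luminescence (CellTiter-Glo), inhibition relative to DMSO-only wells, day 0 signal as background, GI50 from four-parameter fit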

Row | Structure (SMILES) | IC50 [1] [nM] | GI50 [2] [nM]
1 | COc1ncnc(C2CC2)c1-c1ncc2c(n1)N(Cc1ccc(-c3nc(C(F)(F)F)cn3C)cc1)CC(=O)N2 [Compound 5, 2-(4-cyclopropyl-6-methoxypyrimidin-5-yl)-8-(4-(1-methyl-4-(trifluoromethyl)-1H-imidazol-2-yl)benzyl)-7,8-dihydropteridin-6(5H)-one] | 43.7 | 152
2 | COc1ncnc(C2CC2)c1-c1ncc2c(n1)N(Cc1ccc(-c3nc(C(F)(F)F)cn3C)cc1)C(=O)CO2 [Compound 6, 2-(4-cyclopropyl-6-methoxypyrimidin-5-yl)-8-(4-(1-methyl-4-(trifluoromethyl)-1H-imidazol-2-yl)benzyl)-6H-pyrimido [5,4-b][1,4]oxazin-7(8H)-one] |  | 420
3 | COc1ncnc(C2CC2)c1-c1ncc2c(n1)N(Cc1c(F)cc(-c3nc(C(F)(F)F)cn3C)cc1F)CCO2 [Compound 10, 2-(4-cyclopropyl-6-methoxypyrimidin-5-yl)-8-(2,6-difluoro-4-(1-methyl-4-(trifluoromethyl)-1H-imidazol-2-yl)benzyl)-7,8-dihydro-6H-pyrimido[5,4-b][1,4]oxazine] | 106 | 507
4 | COc1ncnc(C2CC2)c1-c1ncc2c(n1)N(Cc1ccc(-c3nc(C(F)(F)F)cn3C)cc1)C(=O)C(C)O2 (centres unmarked) [Compound 21, 2-(4-cyclopropyl-6-methoxypyrimidin-5-yl)-6-methyl-8-(4-(1-methyl-4-(trifluoromethyl)-1H-imidazol-2-yl)benzyl)-6H-pyrimido[5,4-b][1,4]oxazin-7(8H)-one] | 16.7 | 97.5
5 | COc1ncnc(C2CC2)c1-c1ncc2c(=O)n(C)c(=O)n(Cc3ccc(-c4nc(C(F)(F)F)cn4C)cc3)c2n1 [Compound 35, 7-(4-cyclopropyl-6-methoxypyrimidin-5-yl)-3-methyl-1-(4-(1-methyl-4-(trifluoromethyl)-1H-imidazol-2-yl)benzyl)pyrimido[4,5-d]pyrimidine-2,4(1H,3H)-dione] | 69.5 | 364
6 | COc1ncnc(C2CC2)c1-c1ncc2c(n1)N(Cc1ccc(-c3nc(C(F)(F)F)cn3C)cc1)CN(C)C2=O [Compound 36, 7-(4-cyclopropyl-6-methoxypyrimidin-5-yl)-3-methyl-1-(4-(1-methyl-4-(trifluoromethyl)-1H-imidazol-2-yl)benzyl)-2,3-dihydropyrimido[4,5-d]pyrimidin-4(1H)-one] | 82.7 | 546
7 | COc1ncnc(C2CC2)c1-c1ncc2c(n1)N(Cc1ccc(-c3nc(C(F)(F)F)cn3C)cc1)C1CCCN1C2=O (centres unmarked) [Compound 42, 2-(4-cyclopropyl-6-methoxypyrimidin-5-yl)-10-(4-(1-methyl-4-(trifluoromethyl)-1H-imidazol-2-yl)benzyl)-8,9,9a,10-tetrahydropyrimido[4,5-d]pyrrolo[1,2-a]pyrimidin-5(7H)-one] | 86.6 | 474
8 | COc1ncnc(C2CC2)c1-c1ncc2c(n1)N(Cc1ccc(-n3nc(C(F)(F)F)cc3C)cc1)CC(=O)N2C1CC1 [Compound 72, 2-(4-cyclopropyl-6-methoxypyrimidin-5-yl)-8-(4-(5-methyl-3-(trifluoromethyl)-1H-pyrazol-1-yl)benzyl)-5-cyclopropyl-7,8-dihydropteridin-6(5H)-one] | 38 | 
9 | Cc1cc(C(F)(F)F)nn1-c1ccc(CN2C(=O)OC(C)(C)c3cnc(-c4c(OC(F)F)ncnc4C4CC4)nc32)cc1 [Compound 75, 7-(4-cyclopropyl-6-difluoromethoxypyrimidin-5-yl)-4,4-dimethyl-1-(4-(5-methyl-3-(trifluoromethyl)-1H-pyrazol-1-yl)benzyl)-1,4-dihydro-2H-pyrimido[4,5-d][1,3]oxazin-2-one] | 14.8 | 
10 | COc1ncnc(C2CC2)c1-c1ncc2c(n1)N(Cc1ccc(-c3nc(C(F)(F)F)cn3C)c(F)c1)N(C)C(=O)N2C [Compound 84, 7-(4-cyclopropyl-6-methoxypyrimidin-5-yl)-1-(3-fluoro-4-(1-methyl-4-(trifluoromethyl)-1H-imidazol-2-yl)benzyl)-2,4-dimethyl-1,4-dihydropyrimido[5,4-e][1,2,4]triazin-3(2H)-one] | 69.7 | 
11 | Cc1cnc(-c2ccccc2C(C)C)nc1NCc1ccc(-n2ccnn2)cc1 [ML323, reference compound] |  | 1820

Other lines, results leading:

Row | IC50 [1] [nM] | GI50 [2] [nM] | Structure (SMILES)
12 | 18 | 22.9 | CC(C)c1ncccc1-c1ncc2c(n1)N(Cc1ccc(-c3nc(C(F)(F)F)cn3C)cc1)CCO2 [Compound 1, 2-(2-isopropylpyridin-3-yl)-8-(4-(1-methyl-4-(trifluoromethyl)-1H-imidazol-2-yl)benzyl)-7,8-dihydro-6H-pyrimido[5,4-b][1,4]oxazine]
13 |  | 20.9 | COc1ncnc(C2CC2)c1-c1ncc2c(n1)N(Cc1ccc(-c3nc(C(F)(F)F)cn3C)cc1)CCO2 [Compound 2, 2-(4-cyclopropyl-6-methoxypyrimidin-5-yl)-8-(4-(1-methyl-4-(trifluoromethyl)-1H-imidazol-2-yl)benzyl)-7,8-dihydro-6H-pyrimido[5,4-b][1,4]oxazine]
14 | 21.3 | 47.3 | COc1ncnc(C2CC2)c1-c1cc2c(cn1)OCCN2Cc1ccc(-c2nc(C(F)(F)F)cn2C)cc1 [Compound 3, 7-(4-cyclopropyl-6-methoxypyrimidin-5-yl)-1-(4-(1-methyl-4-(trifluoromethyl)-1H-imidazol-2-yl)benzyl)-2,3-dihydro-1H-pyrido[3,4-b][1,4]oxazine]
15 |  | 50.4 | COc1ncnc(C2CC2)c1-c1ncc2c(n1)N(Cc1ccc(-c3nc(C(F)(F)F)cn3C)cc1F)CCO2 [Compound 9, 2-(4-cyclopropyl-6-methoxypyrimidin-5-yl)-8-(2-fluoro-4-(1-methyl-4-(trifluoromethyl)-1H-imidazol-2-yl)benzyl)-7,8-dihydro-6H-pyrimido[5,4-b][1,4]oxazine]
16 | 34 | 20.1 | COc1ncnc(C2CC2)c1-c1ncc2c(n1)N(Cc1ccc(-c3nc(C(F)(F)F)cn3C)cc1)CC(C)O2 (centres unmarked) [Compound 15, 2-(4-cyclopropyl-6-methoxypyrimidin-5-yl)-6-methyl-8-(4-(1-methyl-4-(trifluoromethyl)-1H-imidazol-2-yl)benzyl)-7,8-dihydro-6H-pyrimido[5,4-b][1,4]oxazine]
17 | 21.9 | 32.5 | COc1ncnc(C2CC2)c1-c1ncc2c(n1)N(Cc1ccc(-c3nc(C(F)(F)F)cn3C)cc1)C(C)CO2 (centres unmarked) [Compound 23, 2-(4-cyclopropyl-6-methoxypyrimidin-5-yl)-7-methyl-8-(4-(1-methyl-4-(trifluoromethyl)-1H-imidazol-2-yl)benzyl)-7,8-dihydro-6H-pyrimido[5,4-b][1,4]oxazine]
18 | 27.2 | 84.8 | COc1ncnc(C2CC2)c1-c1ncc2c(n1)N(Cc1ccc(-c3nc(C(F)(F)F)cn3C)cc1)CC(=O)N2CC(F)(F)F [Compound 25, 2-(4-cyclopropyl-6-methoxypyrimidin-5-yl)-5-(2,2,2-trifluoroethyl)-8-(4-(1-methyl-4-(trifluoromethyl)-1H-imidazol-2-yl)benzyl)-7,8-dihydropteridin-6(5H)-one]
19 | 20 | 24.4 | COc1ncnc(C2CC2)c1-c1ncc2c(n1)N(Cc1ccc(-c3nc(C(F)(F)F)cn3C)cc1)C(=O)N(C)C2 [Compound 29, 7-(4-cyclopropyl-6-methoxypyrimidin-5-yl)-3-methyl-1-(4-(1-methyl-4-(trifluoromethyl)-1H-imidazol-2-yl)benzyl)-3,4-dihydropyrimido[4,5-d]pyrimidin-2(1H)-one]
20 |  | 11.4 | COc1ncnc(C2CC2)c1-c1ncc2c(n1)N(Cc1ccc(-c3nc(C(F)(F)F)cn3C)c(F)c1)CCO2 [Compound 32, 2-(4-cyclopropyl-6-methoxypyrimidin-5-yl)-8-(3-fluoro-4-(1-methyl-4-(trifluoromethyl)-1H-imidazol-2-yl)benzyl)-7,8-dihydro-6H-pyrimido[5,4-b][1,4]oxazine]
21 | 18.9 | 39.6 | CCN1C(=O)CN(Cc2ccc(-c3nc(C(F)(F)F)cn3CC)cc2)c2nc(-c3c(OC)ncnc3C3CC3)ncc21 [Compound 34, 2-(4-cyclopropyl-6-methoxypyrimidin-5-yl)-5-ethyl-8-(4-(1-ethyl-4-(trifluoromethyl)-1H-imidazol-2-yl)benzyl)-7,8-dihydropteridin-6(5H)-one]
22 | 13.9 | 27.5 | COc1ncnc(C2CC2)c1-c1ncc2c(n1)N(Cc1ccc(-n3nc(C(F)(F)F)cc3C)c(F)c1)CC(=O)N2C [Compound 44, 2-(4-cyclopropyl-6-methoxypyrimidin-5-yl)-5-methyl-8-(3-fluoro-4-(5-methyl-3-(trifluoromethyl)-1H-pyrazol-1-yl)benzyl)-7,8-dihydropteridin-6(5H)-one]
23 | 8.1 | 19.8 | Cn1cc(C(F)(F)F)nc1-c1ccc(CN2C(=O)OC(C)(C)c3cnc(-c4c(OC(F)F)ncnc4C4CC4)nc32)cc1F [Compound 57, 7-(4-cyclopropyl-6-(difluoromethoxy)pyrimidin-5-yl)-1-(3-fluoro-4-(1-methyl-4-(trifluoromethyl)-1H-imidazol-2-yl)benzyl)-4,4-dimethyl-1,4-dihydro-2H-pyrimido[4,5-d][1,3]oxazin-2-one]
